In ChEMBL document CHEMBL3407452, “Linear and branched alkyl-esters and amides of gallic acid and other (mono-, di- and tri-) hydroxy benzoyl derivatives as promising anti-HCV inhibitors” (Eur J Med Chem, 2015):
Activity calls are given as the source filed them. No cut-off for these calls is given here.

What was measured:
[1] = test system: Human immunodeficiency virus 1; experiment: Antiviral activity against HIV1 3B infected in human CEM cells assessed as reduction in virus-induced cytopathicity after 4 to 5 days by microscopy based syncytium cell formation assay; type: functional, organism-based, CCRF-CEM; conditions: Human immunodeficiency virus 1, 3B, CCRF-CEM; read-out: EC50
[2] = test system: Human immunodeficiency virus 2; experiment: Antiviral activity against HIV2 ROD infected in human CEM cells assessed as reduction in virus-induced cytopathicity after 4 to 5 days by microscopy based syncytium cell formation assay; type: functional, organism-based, ISOLATE ROD, CCRF-CEM; conditions: Human immunodeficiency virus 2, ISOLATE ROD, CCRF-CEM; read-out: EC50
[3] = Cytotoxicity against human CEM cells assessed as inhibition of cell proliferation; type: cell-based; conditions: CEM cells (CCRF-CEM)
Hepatitis C virus [4] = experiment: Antiviral activity against HCV genotype 1b I389luc-ubi-neo/NS3-3'/5.1 replicons infected in human Huh5-2 HCV subgenomic replicon-containing cells assessed as reduction in virus replication after 3 days by luciferase reporter gene assay; type: functional, Hepacivirus hominis; conditions: Hepatitis C virus, genotype 1b, Huh-5-2, 72 h
[5] = Cytotoxicity against human Huh5-2 cells after 72 hrs by MTS assay; type: cell-based, Huh-5-2
[6] = Selectivity index, ratio of CC50 for human Huh5-2 cells to EC50 for HCV genotype 1b; set-up: species or system Huh-5-2
Hepatitis C virus [7] = experiment: Antiviral activity against HCV genotype 1b I389luc-ubi-neo/NS3-3'/5.1 replicons infected in human Huh-9-13 HCV subgenomic replicon-containing cells assessed as reduction in virus replication after 3 days by RT-qPCR method; type: functional, Hepacivirus hominis; conditions: 72 h
Hepatitis C virus [8] = experiment: Antiviral activity against HCV genotype 1b I389luc-ubi-neo/NS3-3'/5.1 replicons infected in human HuH6 HCV subgenomic replicon-containing cells assessed as reduction in virus replication after 3 days by RT-qPCR method; type: functional, Hepacivirus hominis; conditions: HuH-6, 72 h
[9] = Cytotoxicity against human Huh-9-13 cells after 72 hrs by MTS assay; type: cell-based
[10] = Cytotoxicity against human HuH6 cells after 72 hrs by MTS assay; type: cell-based
[11] = Cytotoxicity against human Huh-9-13 cells assessed as reduction in cell number at 33 uM to 100 uM after 3 days by nile red staining based confocal microscopy; conditions: 72 h
[12] = Cytotoxicity against human Huh-9-13 cells assessed as alteration in cell morphology at 33 uM to 100 uM after 3 days by nile red staining based confocal microscopy; conditions: 72 h
[13] = Induction of phospholipidosis in human Huh-9-13 cells assessed as increase in charged lipid content at 33 uM to 100 uM after 3 days by nile red staining based confocal microscopy; type: cell-based; conditions: 72 h
[14] = Cytotoxicity against human Huh-9-13 cells assessed as reduction in cell number at 1 uM to 11 uM after 3 days by nile red staining based confocal microscopy; conditions: 72 h
[15] = Cytotoxicity against human Huh-9-13 cells assessed as alteration in cell morphology at 1 uM to 11 uM after 3 days by nile red staining based confocal microscopy; conditions: 72 h
[16] = Induction of phospholipidosis in human Huh-9-13 cells assessed as increase in charged lipid content at 1 uM to 11 uM after 3 days by nile red staining based confocal microscopy; type: cell-based; conditions: 72 h
Vaccinia virus = experiment: Antiviral activity against vaccinia virus; type: functional, organism-based; conditions: Orthopoxvirus vaccinia
[17] = test system: Vesicular stomatitis virus; experiment: Antiviral activity against vesicular stomatitis virus; type: functional, organism-based
Coxsackievirus B4 = experiment: Antiviral activity against human coxsackievirus B4; type: functional, organism-based
[18] = test system: Respiratory syncytial virus; experiment: Antiviral activity against RSV; type: functional, organism-based
Human respirovirus 3 = experiment: Antiviral activity against human parainfluenza virus 3; type: functional, organism-based
Reovirus sp. = experiment: Antiviral activity against reovirus; type: functional, organism-based
Sindbis virus = experiment: Antiviral activity against sindbis virus; type: functional, organism-based
Influenza A virus H3N2 = experiment: Antiviral activity against influenza A virus H3N2; type: functional, organism-based
Influenza A virus = experiment: Antiviral activity against influenza A virus (H1N1); type: functional, organism-based
Punta Toro virus = experiment: Antiviral activity against punta toro virus; type: functional, organism-based
Feline coronavirus = experiment: Antiviral activity against feline coronavirus; type: functional, organism-based
Felid alphaherpesvirus 1 = experiment: Antiviral activity against feline herpesvirus; type: functional, organism-based
Chikungunya virus = experiment: Antiviral activity against chikungunya virus; type: functional

In the case of O=C(NCCCCCCCCCCCCNC(=O)c1ccc(O)c(O)c1O)c1ccc(O)c(O)c1O, the EC50 [1] is reported as over 10 µM, the EC50 [2] is reported as over 10 µM and the CC50 [3] is reported as 55 µM. For the same compound, the EC90 (Hepatitis C virus [4]) was 6.1 µM, the EC50 (Hepatitis C virus [4]; read-out: EC50) was 2.5 µM and the CC50 at 72 h [5] was over 100 µM. The “Ratio CC50/EC50” value [6] was over 40, the EC50 (Hepatitis C virus [7]) was 8.4 µM and the EC50 (Hepatitis C virus [8]) was 33 µM. For the same compound, the CC50 at 72 h [9] was over 100 µM, the CC50 at 72 h [10] was over 100 µM and the Activity [11] was “Toxic”. The Activity [12] was “Toxic”, the Activity [13] was “Toxic” and the Activity [14] was “Non-toxic”. The Activity [15] was “Non-toxic”, the Activity [16] was “Non-toxic” and the Activity (Vaccinia virus) was “inactive”. For the same compound, the Activity [17] was “inactive”, the Activity (Coxsackievirus B4) was “inactive” and the Activity [18] was “inactive”. The Activity (Human respirovirus 3) was “inactive”, the Activity (Reovirus sp.) was “inactive” and the Activity (Sindbis virus) was “inactive”. For the same compound, the Activity (Influenza A virus H3N2) was “inactive”, the Activity (Influenza A virus) was “inactive” and the Activity (Punta Toro virus) was “inactive”. The Activity (Feline coronavirus) was “inactive”, the Activity (Felid alphaherpesvirus 1) was “inactive” and the Activity (Chikungunya virus) was “inactive”.
